Measurements published in patent EP0574185B1, “PGE1 analogs” (NEWPHARMA INTERNATIONAL CORPORATION, priority 1992, dated 1993).

Columns and labels:
[1] = test system: patients; details: three or four suppositories of 1 mg at regular intervals; various studies; cited from earlier work
[2] = test system: Swiss male mice; assay: Motor activity in mice (rota-rod); details: 5 mg/kg, i.p. (table); positive control
[3] = test system: platelets; details: background statement; cited from earlier work

SMILES	concentration that inhibits platelets aggregation "in vitro" [3]	further results
CCCCC(C)(C)[C@H](O)/C=C/[C@H]1[C@H](O)CC(=O)[C@@H]1CCCC/C=C/C(=O)OC (relative stereo) [gemeprost, 16,16-dimethyl-trans-Δ^2-PGE1 methyl ester]	–	complete abortions (% of the patients) [1]: more than 90%
CN1C(=O)CN=C(c2ccccc2)c2cc(Cl)ccc21 [Diazepam, reference compound]	–	Fraction (animals fallen before 300 sec/total number of animals) [2]: 8/10
CCCCC[C@H](O)/C=C/[C@H]1C(=O)C[C@H](O)[C@@H]1C/C=C\CCCC(=O)O [PGD2]	0.1 µM	–
CCCCC[C@H](O)/C=C/[C@H]1[C@H](O)CC(=O)[C@@H]1CCCCCCC(=O)O [PGE1]	0.1 µM	–
